Laboratory results taken from PubChem BioAssay (NCI).
Several values for one entry are separate records, joined by “and”; a condition that tells them apart may be missing. Equal entries are not always repeated.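 Interpolation was linear, between the two tested concentrations surrounding the appropriate level; five concentrations were tested over 48 hours in 96-well plates. The concentration for 50% growth inhibition is given as GI50. TGI is the concentration that stops growth completely.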

How the values were obtained:
Test in all cases: DTP human tumour cell line panel, 48 h
[1] = tested on: NCI-H226 lung
[2] = tested on: SK-MEL-5 melanoma
[3] = tested on: BT-549 breast
[4] = tested on: KM12 colon
[5] = tested on: UO-31 renal
[6] = tested on: EKVX NSCLC
[7] = tested on: U251 CNS
[8] = tested on: CCRF-CEM leukemia
[9] = tested on: OVCAR-4 ovarian
[10] = tested on: SK-MEL-28 melanoma

Compound	GI50 [1]	TGI [1]	GI50 [2]	TGI [2]	GI50 [3] [µM]	TGI [3]	GI50 [4]	GI50 [5]	TGI [5]	GI50 [6]	TGI [6]	GI50 [7] [µM]	GI50 [8] [µM]	TGI [9] [µM]	GI50 [10] [µM]	TGI [10]	TGI [4] [µM]	TGI [7] [µM]	TGI [8] [µM]	GI50 [9] [µM]
COc1cc(C2c3cc4c(cc3[C@@H](Nc3ccc(C#N)cc3)C3COC(=O)[C@H]23)OCO4)cc(OC)c1O (some centres undefined)	0.239 µM and 0.242 µM	3.46 µM and 1.43 µM and 2.06 µM	0.911 µM and 0.54 µM	4.68 µM and 2.68 µM and 2.06 µM	1.71	33.8 µM and 7.42 µM	1.13 µM and 1.61 µM	0.26 µM and 0.968 µM	7.14 µM and 5.42 µM and 2.64 µM	2.21 µM and 3.71 µM	50 µM and 12.8 µM and > 100 µM	0.879	0.147	19.2	2.89	28.2 µM and > 100 µM	–	–	–	–
COc1ccc(N2C(C)=C(C#N)C34C(=O)N(c5ccccc5)C(=O)C3=C(O)C=CC24O)cc1 (centres undefined)	13.5 µM	35.1 µM	11.4 µM	28.2 µM	9.75	22.4 µM	10 µM	13.9 µM	55.8 µM	22.3 µM	85.8 µM	13	3.09	94.5	12	30.1 µM	26.6	25.7	15.6	24.4
CCN(CC)c1ccc(C(=C2C=CC(=[N+](CC)Cc3cccc(S(=O)(=O)O)c3)C=C2)c2ccc(N(CC)Cc3cccc(S(=O)(=O)O)c3)cc2)cc1	9.07 µM	> 90.2 µM	10.1 µM	24.1 µM	5.45	> 91.7 µM	4.36 µM	16.3 µM	> 91.9 µM	6.82 µM	> 100 µM	3.58	6.59	> 100	15.6	> 100 µM	28.9	> 100	98.5	8.71
CN(CCCN)CCCNc1nc2ccccc2c2[nH]c3ccccc3c12	0.297 µM	0.997 µM	0.747 µM	1.98 µM	0.924	2.15 µM	0.0513 µM	0.337 µM	1.34 µM	1.44 µM	8.2 µM	0.159	0.173	0.614	0.342	1.17 µM	0.314	1.07	1.58	0.201
CC(C)(C)C[C@H]1NC(C(=O)NCC[C@H](O)CO)[C@H](c2cccc(Cl)c2)[C@@]12C(=O)Nc1cc(Cl)c(F)cc12 (some centres undefined)	2.46 µM	14.1 µM	6.73 µM	20 µM	16.3	34.2 µM	14.7 µM	5.13 µM	19.2 µM	13.3 µM	29.1 µM	15	17.7	32.4	15.9	30.5 µM	28.8	30.5	45.9	14.8
C=CCc1c2c(c(OC)c3ccoc13)C(=O)/C(=C/c1ccccc1OC)O2	3.22 µM	20.5 µM	3.91 µM	92 µM	4.44	> 100 µM	3.49 µM	4.98 µM	> 100 µM	4.41 µM	> 100 µM	3.53	3.44	> 100	5.21	> 100 µM	22.3	> 100	> 100	3.34
COC(=O)[C@]12CC[C@@H](C)[C@H](C)[C@@H]1C1=CC[C@@H]3[C@@]4(C)C[C@@H](OC(C)=O)[C@H](O)[C@@](C)(COC(C)=O)[C@@H]4[C@H](O)C[C@@]3(C)[C@]1(C)CC2	3.19 µM	8.54 µM	1.78 µM	3.66 µM	2.18	5.71 µM	2.65 µM	2.01 µM	7.2 µM	2.22 µM	6.69 µM	1.87	2.54	14.2	2.42	6.7 µM	7.9	4.01	6.34	3.23
COC1(C(=O)N[C@@H](C)c2ccc(-n3cc(F)cn3)nc2)CCC(c2nc(C)cc(Nc3cc(C)[nH]n3)n2)CC1 (some centres undefined)	0.222 µM	11.7 µM	3.18 µM	10.4 µM	0.627	6.01 µM	0.0676 µM	0.436 µM	1.99 µM	0.688 µM	2.94 µM	1.25	11	17.9	10.2	22.5 µM	18.2	22.6	> 100	1.94
CCCC[C@H](NC(=O)[C@H]1CCCN1C)C(=O)N(C)[C@H](C[C@@H](OC(C)=O)c1nc(C(=O)N[C@@H](Cc2ccccc2)C[C@H](C)C(=O)OCC)cs1)C(C)C	0.531 µM	16.4 µM	< 0.00333 µM	0.063 µM	0.0168	0.447 µM	0.0114 µM	0.209 µM	> 33.3 µM	0.0591 µM	> 33.3 µM	0.0144	0.0122	> 33.3	0.029	17.4 µM	18	> 33.3	6.41	0.357
COc1c2c(c3c(c1CCC(=O)O)OC(C)(C)C=C3)OC(C)(C)C=C2	–	> 100 µM	–	> 100 µM	–	> 100 µM	–	–	> 100 µM	–	> 100 µM	–	–	> 100	–	> 100 µM	> 100	> 100	–	–
C1CCSCCCCSCCCCSCCCCSC1	–	> 100 µM	–	> 100 µM	–	> 100 µM	–	–	> 100 µM	–	> 100 µM	–	–	> 100	–	> 100 µM	> 100	> 100	–	–
COc1ccc2nc3cc([N+](=O)[O-])ccc3c(NCCCCCN(C)C)c2c1	0.309 µM	1.68 µM	0.159 µM	0.39 µM	1.77	3.55 µM	0.207 µM	0.819 µM	3.63 µM	1.59 µM	7.27 µM	0.218	0.295	0.546	0.283	1.18 µM	0.618	2.64	3.09	0.14
COc1cc(Cl)cc(-c2nn(C(=O)NCCN3CCOCC3)cc2-c2ccncc2)c1	7.2 µM	48.9 µM	2.59 µM	13.1 µM	3.87	35.2 µM	3.79 µM	3.85 µM	64.6 µM	5.57 µM	79.9 µM	4.7	5.91	> 100	4.6	66 µM	> 100	> 100	> 100	12.6
